Converted amounts (≈) assume the structure as drawn.
Columns and labels:
[1] = test system: Mycobacterium tuberculosis; test: microbe, parasite or virus in culture; conditions: H37Rv
Description: Antitubercular activity against Mycobacterium tuberculosis H37Rv by LORA method

physchem = conditions: water, pH 7
Description: Solubility of the compound in water at pH 7.0 by HPLC

[2] = test system: Mycobacterium tuberculosis; test: microbe, parasite or virus in culture; conditions: H37Rv; remark: listed apart in the source

| Compound | MIC [1] | solubility (physchem) | MIC [2] |
| --- | --- | --- | --- |
| N#Cc1ccc(-c2ccc(CO[C@@H]3COc4nc([N+](=O)[O-])cn4C3)cn2)cc1 | 6 µM (≈ 2.26 µg/mL) | 2.9 µg/mL (≈ 7.68 µM) | 0.18 µM (≈ 0.0679 µg/mL) |
| O=[N+]([O-])c1cn2c(n1)OC[C@@H](OCc1cccc(-c3ccc(OCc4ccccc4)nc3)c1)C2 | 3 µM (≈ 1.38 µg/mL) | 0.15 µg/mL (≈ 0.327 µM) | 0.07 µM (≈ 0.0321 µg/mL) |
| O=[N+]([O-])c1cn2c(n1)OC[C@@H](OCc1cc(-c3ccc(F)cc3)ccn1)C2 | 28 µM (≈ 10.4 µg/mL) | 16 µg/mL (≈ 43.2 µM) | 0.46 µM (≈ 0.17 µg/mL) |
| O=[N+]([O-])c1cn2c(n1)OC[C@@H](OCc1ccccc1-c1ccc(F)nc1)C2 | 16 µM (≈ 5.93 µg/mL) | 35 µg/mL (≈ 94.5 µM) | > 8 µM |
| COc1ccc(-c2cccc(CO[C@@H]3COc4nc([N+](=O)[O-])cn4C3)c2)cn1 | 1.7 µM (≈ 0.65 µg/mL) | 18 µg/mL (≈ 47.1 µM) | 0.4 µM (≈ 0.153 µg/mL) |
| COc1ccc(-c2ccc(CO[C@@H]3COc4nc([N+](=O)[O-])cn4C3)nc2)cn1 | 9.6 µM (≈ 3.68 µg/mL) | 24 µg/mL (≈ 62.6 µM) | 0.36 µM (≈ 0.138 µg/mL) |
| N#Cc1ccc(-c2cc(CO[C@@H]3COc4nc([N+](=O)[O-])cn4C3)ccn2)cc1 | 13 µM (≈ 4.91 µg/mL) | 8 µg/mL (≈ 21.2 µM) | 0.38 µM (≈ 0.143 µg/mL) |
| COc1ccc(-c2ccc(CO[C@@H]3COc4nc([N+](=O)[O-])cn4C3)cn2)cn1 | 7.3 µM (≈ 2.8 µg/mL) | 51 µg/mL (≈ 133 µM) | 0.24 µM (≈ 0.092 µg/mL) |
| O=[N+]([O-])c1cn2c(n1)OC[C@@H](OCc1ccnc(-c3ccc(F)cc3)c1)C2 | 1.2 µM (≈ 0.444 µg/mL) | 31 µg/mL (≈ 83.7 µM) | 0.17 µM (≈ 0.063 µg/mL) |
| COc1ccc(-c2ccc(CO[C@@H]3COc4nc([N+](=O)[O-])cn4C3)nc2)cc1F | 3.4 µM (≈ 1.36 µg/mL) | 10 µg/mL (≈ 25 µM) | 0.17 µM (≈ 0.0681 µg/mL) |
| O=[N+]([O-])c1cn2c(n1)OC[C@@H](OCc1ccc(-c3ccc(F)nc3)cn1)C2 | 19 µM (≈ 7.06 µg/mL) | 43 µg/mL (≈ 116 µM) | 0.49 µM (≈ 0.182 µg/mL) |
| O=[N+]([O-])c1cn2c(n1)OC[C@@H](OCc1ccc(-c3ccc(Cl)c(OC(F)(F)F)c3)cn1)C2 | 2.3 µM (≈ 1.08 µg/mL) | 0.8 µg/mL (≈ 1.7 µM) | 0.06 µM (≈ 0.0282 µg/mL) |
| O=[N+]([O-])c1cn2c(n1)OC[C@@H](OCc1ccc(-c3ccccn3)cc1)C2 | 1.7 µM (≈ 0.599 µg/mL) | 7.3 µg/mL (≈ 20.7 µM) | 0.21 µM (≈ 0.074 µg/mL) |
| COc1ccc(-c2ccccc2CO[C@@H]2COc3nc([N+](=O)[O-])cn3C2)cn1 | 8.3 µM (≈ 3.17 µg/mL) | 48 µg/mL (≈ 126 µM) | 5.2 µM (≈ 1.99 µg/mL) |
| O=[N+]([O-])c1cn2c(n1)OC[C@@H](OCc1ccnc(-c3ccc(OC(F)F)cc3)c1)C2 | 2.7 µM (≈ 1.13 µg/mL) | 16 µg/mL (≈ 38.2 µM) | 0.055 µM (≈ 0.023 µg/mL) |
| O=[N+]([O-])c1cn2c(n1)OC[C@@H](OCc1ccc(-c3ccc(Cl)c(OC(F)(F)F)c3)nc1)C2 | 2.4 µM (≈ 1.13 µg/mL) | 0.22 µg/mL (≈ 0.467 µM) | 0.18 µM (≈ 0.0847 µg/mL) |
| O=[N+]([O-])c1cn2c(n1)OC[C@@H](OCc1cccc(-c3ccc(F)cc3)n1)C2 | 2.7 µM (≈ 1 µg/mL) | – | 0.3 µM (≈ 0.111 µg/mL) |
| N#Cc1ccc(-c2ccc(CO[C@@H]3COc4nc([N+](=O)[O-])cn4C3)nn2)cc1 | 13 µM (≈ 4.92 µg/mL) | 22 µg/mL (≈ 58.1 µM) | 0.36 µM (≈ 0.136 µg/mL) |
| O=[N+]([O-])c1cn2c(n1)OC[C@@H](OCc1ccccc1-c1ccc(OCc3ccccc3)nc1)C2 | 10 µM (≈ 4.58 µg/mL) | 1.2 µg/mL (≈ 2.62 µM) | 2.7 µM (≈ 1.24 µg/mL) |
| N#Cc1ccc(-c2ccc(CO[C@@H]3COc4nc([N+](=O)[O-])cn4C3)cc2)cn1 | 2.4 µM (≈ 0.906 µg/mL) | 3 µg/mL (≈ 7.95 µM) | 0.2 µM (≈ 0.0755 µg/mL) |
| COc1ccc(-c2ccc(CO[C@@H]3COc4nc([N+](=O)[O-])cn4C3)cn2)cc1F | 1.9 µM (≈ 0.761 µg/mL) | 2.1 µg/mL (≈ 5.25 µM) | 0.09 µM (≈ 0.036 µg/mL) |
| O=[N+]([O-])c1cn2c(n1)OC[C@@H](OCc1ccc(-c3ccc(F)cc3)nn1)C2 | 5.6 µM (≈ 2.08 µg/mL) | 8.3 µg/mL (≈ 22.4 µM) | 0.19 µM (≈ 0.0706 µg/mL) |
| COc1ccc(-c2ccc(CO[C@@H]3COc4nc([N+](=O)[O-])cn4C3)cc2)nc1 | 1.2 µM (≈ 0.459 µg/mL) | 2.5 µg/mL (≈ 6.54 µM) | 0.13 µM (≈ 0.0497 µg/mL) |
| O=[N+]([O-])c1cn2c(n1)OC[C@@H](OCc1ccc(-c3ccc(OC(F)F)cc3)cn1)C2 | 4 µM (≈ 1.67 µg/mL) | – | 0.02 µM (≈ 0.00837 µg/mL) |
| O=[N+]([O-])c1cn2c(n1)OC[C@@H](OCc1cnc(-c3ccc(C(F)(F)F)cc3)cn1)C2 | 0.97 µM (≈ 0.409 µg/mL) | 0.84 µg/mL (≈ 1.99 µM) | 0.08 µM (≈ 0.0337 µg/mL) |
| N#Cc1ccc(-c2ccc(CO[C@@H]3COc4nc([N+](=O)[O-])cn4C3)cc2)nc1 | 2.5 µM (≈ 0.943 µg/mL) | 1.7 µg/mL (≈ 4.5 µM) | 0.08 µM (≈ 0.0302 µg/mL) |

| Compound | MIC [1] | solubility (physchem) | MIC [2] |
| --- | --- | --- | --- |
| O=[N+]([O-])c1cn2c(n1)OC[C@@H](OCc1ccc(-c3ccc(OCc4ccccc4)nc3)cc1)C2 | > 32 µM | 0.03 µg/mL (≈ 0.0654 µM) | 0.04 µM (≈ 0.0183 µg/mL) |
| O=[N+]([O-])c1cn2c(n1)OC[C@@H](OCc1ccc(-c3ccnc(F)c3)cn1)C2 | 14 µM (≈ 5.2 µg/mL) | 42 µg/mL (≈ 113 µM) | 1.7 µM (≈ 0.631 µg/mL) |
| COc1ccc(-c2cc(CO[C@@H]3COc4nc([N+](=O)[O-])cn4C3)ccn2)cn1 | 12 µM (≈ 4.6 µg/mL) | 93 µg/mL (≈ 243 µM) | 1.3 µM (≈ 0.498 µg/mL) |
| O=[N+]([O-])c1cn2c(n1)OC[C@@H](OCc1cc(-c3ccc(C(F)(F)F)cc3)ccn1)C2 | 24 µM (≈ 10.1 µg/mL) | 43 µg/mL (≈ 102 µM) | 0.88 µM (≈ 0.37 µg/mL) |
| N#Cc1ccc(-c2ccc(CO[C@@H]3COc4nc([N+](=O)[O-])cn4C3)nc2)cc1 | 7.5 µM (≈ 2.83 µg/mL) | 45 µg/mL (≈ 119 µM) | 0.18 µM (≈ 0.0679 µg/mL) |
| O=[N+]([O-])c1cn2c(n1)OC[C@@H](OCc1cccc(-c3ccc(C(F)(F)F)nc3)c1)C2 | 8.4 µM (≈ 3.53 µg/mL) | 1.1 µg/mL (≈ 2.62 µM) | 0.47 µM (≈ 0.198 µg/mL) |
| O=[N+]([O-])c1cn2c(n1)OC[C@@H](OCc1cc(-c3ccc(OC(F)(F)F)cc3)ccn1)C2 | 18 µM (≈ 7.85 µg/mL) | – | 0.76 µM (≈ 0.332 µg/mL) |
| O=[N+]([O-])c1cn2c(n1)OC[C@@H](OCc1cncc(-c3ccc(C(F)(F)F)cc3)c1)C2 | 3.5 µM (≈ 1.47 µg/mL) | 2.8 µg/mL (≈ 6.66 µM) | 0.15 µM (≈ 0.0631 µg/mL) |
| O=[N+]([O-])c1cn2c(n1)OC[C@@H](OCc1cccc(-c3ccc(OC(F)F)cn3)c1)C2 | 6.4 µM (≈ 2.68 µg/mL) | 6.7 µg/mL (≈ 16 µM) | 0.21 µM (≈ 0.0879 µg/mL) |
| O=[N+]([O-])c1cn2c(n1)OC[C@@H](OCc1ccc(-c3ccncc3F)cn1)C2 | 20 µM (≈ 7.43 µg/mL) | 700 µg/mL (≈ 1890 µM) | 3.2 µM (≈ 1.19 µg/mL) |
| O=[N+]([O-])c1cn2c(n1)OC[C@@H](OCc1ccc(-c3ccncc3F)cc1)C2 | 3.9 µM (≈ 1.44 µg/mL) | 16 µg/mL (≈ 43.2 µM) | 0.56 µM (≈ 0.207 µg/mL) |
| O=[N+]([O-])c1cn2c(n1)OC[C@@H](OCc1ncc(-c3ccc(F)cc3)cn1)C2 | 12 µM (≈ 4.46 µg/mL) | 50 µg/mL (≈ 135 µM) | 0.13 µM (≈ 0.0483 µg/mL) |
| O=[N+]([O-])c1cn2c(n1)OC[C@@H](OCc1ccc(-c3ccc(C(F)(F)F)cc3)cc1)C2 | – | 0.43 µg/mL (≈ 1.03 µM) | – |
| O=[N+]([O-])c1cn2c(n1)OC[C@@H](OCc1cnc(-c3ccc(OC(F)F)cc3)nc1)C2 | 4.4 µM (≈ 1.85 µg/mL) | 1.1 µg/mL (≈ 2.62 µM) | 0.13 µM (≈ 0.0545 µg/mL) |
| O=[N+]([O-])c1cn2c(n1)OC[C@@H](OCc1ccc(-c3ccc(C(F)(F)F)nc3)cn1)C2 | 16 µM (≈ 6.74 µg/mL) | 12 µg/mL (≈ 28.5 µM) | 0.24 µM (≈ 0.101 µg/mL) |
| O=[N+]([O-])c1cn2c(n1)OC[C@@H](OCc1ccc(-c3ccc(OC(F)(F)F)cc3F)cn1)C2 | 1.7 µM (≈ 0.772 µg/mL) | – | 0.06 µM (≈ 0.0273 µg/mL) |
| O=[N+]([O-])c1cn2c(n1)OC[C@@H](OCc1ccccc1-c1ccncc1)C2 | > 32 µM | – | > 8 µM |
| O=[N+]([O-])c1cn2c(n1)OC[C@@H](OCc1cnc(-c3ccc(C(F)(F)F)cc3)nc1)C2 | 9.4 µM (≈ 3.96 µg/mL) | – | 0.025 µM (≈ 0.0105 µg/mL) |
| O=[N+]([O-])c1cn2c(n1)OC[C@@H](OCc1cccc(-c3ccc(OC(F)(F)F)cc3)n1)C2 | 1.4 µM (≈ 0.611 µg/mL) | – | 0.16 µM (≈ 0.0698 µg/mL) |
| O=[N+]([O-])c1cn2c(n1)OC[C@@H](OCc1cccc(-c3ccncc3)c1)C2 | > 32 µM | – | 1.4 µM (≈ 0.493 µg/mL) |
| O=[N+]([O-])c1cn2c(n1)OC[C@@H](OCc1cnc(-c3ccc(C(F)(F)F)nc3)nc1)C2 | 12 µM (≈ 5.07 µg/mL) | – | 0.16 µM (≈ 0.0676 µg/mL) |
| O=[N+]([O-])c1cn2c(n1)OC[C@@H](OCc1cnc(-c3ccc(F)cc3)nc1)C2 | 5.4 µM (≈ 2.01 µg/mL) | – | 0.11 µM (≈ 0.0408 µg/mL) |
| O=[N+]([O-])c1cn2c(n1)OC[C@@H](OCc1ccc(-c3ccc(OC(F)(F)F)cc3Cl)cn1)C2 | 2.6 µM (≈ 1.22 µg/mL) | – | 0.14 µM (≈ 0.0659 µg/mL) |
| O=[N+]([O-])c1cn2c(n1)OC[C@@H](OCc1ccc(-c3ccc(OC(F)(F)F)cc3Cl)nc1)C2 | 1.6 µM (≈ 0.753 µg/mL) | – | 0.03 µM (≈ 0.0141 µg/mL) |
| O=[N+]([O-])c1cn2c(n1)OC[C@@H](OCc1ccc(-c3ccc(F)cc3)cn1)C2 | 3.2 µM (≈ 1.19 µg/mL) | – | 0.13 µM (≈ 0.0481 µg/mL) |
| O=[N+]([O-])c1cn2c(n1)OC[C@@H](OCc1cccc(-c3ccccn3)c1)C2 | 11 µM (≈ 3.88 µg/mL) | – | 1.4 µM (≈ 0.493 µg/mL) |

— ChEMBL document CHEMBL1629541, “Synthesis and structure-activity relationships of aza- and diazabiphenyl analogues of the antitubercular drug (6S)-2-nitro-6-{[4-(trifluoromethoxy)benzyl]oxy}-6,7-dihydro-5H-imidazo[2,1-b][1,3]oxazine (PA-824)” (J Med Chem, 2010)
